Reference: US10414759B2, “Phenylthiazoles and uses thereof” (Purdue Research Foundation, priority 2017, dated 2019)
Converted amounts (≈) assume the structure as drawn. “Also recorded” adds a separate entry of the source. Like-named read-outs stand apart in the source and are kept apart here.

Legend:
[1] = system: MRSA NRS384 (USA300); assay: MIC/MBC S. aureus strains (Table 8); assay type: cell-based; details: Staphylococcus aureus
Experimental: (§1) A bacterial solution equivalent to 0.5 McFarland standard was prepared and diluted in cation-adjusted Mueller-Hinton broth (CAMHB) to achieve a bacterial concentration of about 5×10^5 CFU/mL and seeded in 96-well plates. Enterococcus faecium was diluted in brain heart infusion broth. Enterococcus faecalis, Streptococcus pneumonia and Listeria monocytogenes were diluted in tryptone soya broth (TSB).

[2] = system: S. aureus ATCC 6538; assay: MIC/MBC S. aureus strains (Table 8); assay type: cell-based; details: Staphylococcus aureus, ATCC6538
Experimental: as §1

[3] = system: MRSA NRS385; assay: MIC/MBC S. aureus strains (Table 8); assay type: cell-based; details: Staphylococcus aureus
Experimental: as §1

[4] = system: Enterococcus faecium ATCC 700221 (VRE); assay: MIC/MBC Gram-positive pathogens (Table 9); assay type: cell-based; details: Table 9; Enterococcus faecium ATCC 700221 (VRE); read-out: MIC
Experimental: (§2) The minimum inhibitory concentration (MIC) of tested compounds and control antibiotics were determined using the broth microdilution method in accordance with the recommendations contained in the Clinical and Laboratory Standards Institute guidelines, against methicillin-sensitive (ATCC 6538 and NRS107), methicillin-resistant (MRSA), and vancomycin-resistant (VRSA) Staphylococcus aureus, Staphylococcus epidermidis, Enterococcus faecalis, E. faecium, Listeria monocytogenes, and Streptococcus pneumoniae clinical isolates. A bacterial solution equivalent to 0.5 McFarland standard was prepared and diluted in cation-adjusted Mueller-Hinton broth (CAMHB) to achieve a bacterial concentration of about 5×10^5 CFU/mL and seeded in 96-well plates. Enterococcus faecium was diluted in brain heart infusion broth. Enterococcus faecalis, Streptococcus pneumonia and Listeria monocytogenes were diluted in tryptone soya broth (TSB). Compounds and control drugs were added in the first row of 96-well plates and serially diluted (to achieve a concentration gradient ranging from 128 to 1 μg/mL). Plates were then incubated aerobically at 37° C. for at least 18 hours. The minimum bactericidal concentration (MBC) of the active compounds was tested by plating 5 μL from wells with no growth onto Tryptic soy agar (TSA) plates.

[5] = system: MRSA (USA300); assay: Time-kill assay; assay type: cell-based, Staphylococcus aureus; details: 3.0×MIC; for bactericidal / bacteriostatic behaviour in time-kill assay, in words: MRSA; for time to completely eradicate the MRSA inoculum: t-butyl series
Experimental: Aliquots (100 μL) were taken from each sample after 2, 4, 6, 8, 10, 12, and 24 hours, serially diluted in phosphate-buffered saline, and transferred to Trypticase soy agar (TSA) (Becton, Dickinson and Company, Sparks, Md., USA) plates. Plates were incubated at 37° C. for at least 16 hours before counting viable CFU/mL to determine the time required to reduce the bacterial cell count by 3-log10.

[6] = system: Enterococcus faecalis ATCC 51299 (VRE); assay: MIC/MBC Gram-positive pathogens (Table 9); assay type: cell-based; details: Table 9, Enterococcus faecalis ATCC 51299 (VRE)
Experimental: as §1

[7] = system: Methicillin-resistant Staphylococcus epidermidis NRS101; assay: MIC/MBC Gram-positive pathogens (Table 9); assay type: cell-based
Experimental: as §1

[8] = system: MRSA (2658 RCMB); assay: MIC against MRSA (2658 RCMB), broth dilution; assay type: cell-based, Staphylococcus aureus; details: for MIC: Staphylococcus aureus
Experimental: Bacteria were cultured in cation-adjusted Mueller Hinton broth in a 96-well plate. Compounds, using triplicate samples, were added to the plate and serially diluted. […] Plates were visually inspected and the MIC was categorized as the concentration at which no visible growth of bacteria was observed. The average of triplicate MIC determinations is reported.
as §1

[9] = PBS solubility screen (turbidometric); assay type: physicochemical
Experimental: The solutions were diluted 100-fold into PBS in a 96-well plate and mixed. The absorbance of the PBS-containing plate was measured prior to addition of the test agents to determine the background absorbance. After 2 h, the presence of precipitate was detected by turbidity (absorbance at 540 nm). […] The solubility limit is reported as the highest experimental concentration with no evidence of turbidity.

[10] = Metabolic stability in human liver microsomes; assay type: in vitro ADME; details: pH 7.4, human liver microsomes
Experimental: The tested compounds were incubated in duplicate with human liver microsomes at 37° C. The reaction contained microsomal protein in 100 mM potassium phosphate, 2 mM NADPH, 3 mM MgCl2, pH 7.4. A control was run for each test agent omitting NADPH to detect NADPH-free degradation. At 0, 10, 20, 40, and 60 minutes, an aliquot was removed from each experimental and control reaction and mixed with an equal volume of ice-cold Stop Solution (methanol containing haloperidol, diclofenac, or other internal standard). Stopped reactions are incubated at least ten minutes at −20° C., and an additional volume of water was added. The samples were centrifuged to remove precipitated protein, and the supernatants were analyzed by LC/MS/MS to quantitate the remaining parent. Data are converted to % remaining by dividing by the time zero concentration value. Data are fit to a first-order decay model to determine half-life. Intrinsic clearance is calculated from the half-life and the protein concentrations: CLint=ln(2)/(T1/2 [microsomal protein]).

[11] = system: Caco-2 cells; assay: Caco-2 bidirectional permeability assay; details: for Mean A→B Papp: Caco-2, apical to basolateral
[12] = system: MRSA NRS386; assay: MIC/MBC S. aureus strains (Table 8); assay type: cell-based; details: Staphylococcus aureus
Experimental: as §1

[13] = system: MRSA NRS123 (USA400); assay: MIC/MBC S. aureus strains (Table 8); assay type: cell-based; details: Staphylococcus aureus
Experimental: as §1

[14] = system: MRSA NRS119; assay: MIC/MBC S. aureus strains (Table 8); assay type: cell-based; details: Staphylococcus aureus
Experimental: as §1

[15] = system: VRS10 (VRSA); assay: MIC/MBC S. aureus strains (Table 8); assay type: cell-based; details: Staphylococcus aureus, Table 8, VRS10 (VRSA)
Experimental: as §2

[16] = system: VRS12 (VRSA); assay: MIC/MBC S. aureus strains (Table 8); assay type: cell-based; details: Staphylococcus aureus, Table 8, VRS12 (VRSA)
Experimental: as §2

[17] = system: Listeria monocytogenes ATCC 19111; assay: MIC/MBC Gram-positive pathogens (Table 9); assay type: cell-based
Experimental: as §1

[18] = system: Methicillin-resistant Streptococcus pneumoniae ATCC 700677; assay: MIC/MBC Gram-positive pathogens (Table 9); assay type: cell-based; details: ATCC700677
Experimental: as §1

[19] = system: Cephalosporin-resistant Streptococcus pneumoniae ATCC 51916; assay: MIC/MBC Gram-positive pathogens (Table 9); assay type: cell-based; details: ATCC51916
Experimental: as §1

[20] = system: S. aureus NRS107; assay: MIC/MBC S. aureus strains (Table 8); assay type: cell-based, Staphylococcus aureus
Experimental: as §1

[21] = Table 7, initial screening, MRSA (2658 RCMB), read-out: minimum inhibitory concentration (MIC)
[22] = aqueous buffer, kinetic from dmso stock
[23] = Table 1, MRSA (2658 RCMB), read-out: MIC ± SD
[24] = NADPH omitted, read-out: NADPH-free Clint
[25] = NADPH omitted, read-out: NADPH-free t1/2
[26] = with NADPH, read-out: NADPH-dependent t1/2
[27] = aqueous buffer, kinetic from dmso stock, phosphate buffered saline (PBS), highest concentration with no precipitate (OD540), read-out: Solubility limit
[28] = Staphylococcus aureus, Table 8, S. aureus NRS107

Cc1nc(-c2ccc(C(C)(C)C)cc2)sc1-c1ccnc(NC(=N)N2CCOCC2)n1 [Compound 61, N-(4-(2-(4-(tert-Butyl)phenyl)-4-methylthiazol-5-yl)pyrimidin-2-yl) morpholine-4-carboximidamide]
MIC [1]: 4 µg/mL (≈ 9.16 µM)
MIC [2]: 4 µg/mL (≈ 9.16 µM)
MIC [3]: 4 µg/mL (≈ 9.16 µM)
MIC [4]: 4 µg/mL (≈ 9.16 µM)
bactericidal / bacteriostatic behaviour in time-kill assay, in words [5]: rapid bactericidal activity
time to completely eradicate the MRSA inoculum [5]: within two to four hours
MIC [6]: 4 µg/mL (≈ 9.16 µM)
MBC [7]: 4 µg/mL (≈ 9.16 µM)
MIC [7]: 4 µg/mL (≈ 9.16 µM)
MIC [8, 21]: 1.17 µg/mL (≈ 2.68 µM)

COC(=O)[C@H]1[C@H]2C[C@@H]3c4[nH]c5cc(OC)ccc5c4CCN3C[C@H]2C[C@@H](OC(=O)c2cc(OC)c(OC)c(OC)c2)[C@@H]1OC [Reserpine, reserpine, reference compound]
solubility at 2 h ([9]; phosphate buffered saline (PBS), highest concentration with no precipitate (OD540), read-out: Solubility limit): 31.3 µM (≈ 19.1 µg/mL)

Cc1nc(-c2ccc(C3=CCCC3)cc2)sc1-c1ccnc(N)n1 [Compound 27, 4-{2-[4-(Cyclopent-1-en-1-yl)phenyl]-4-methylthiazol-5-yl}pyrimidin-2-amine]
solubility at 2 h [9, 22]: 35 µM (≈ 11.7 µg/mL)
MIC [8, 23]: 3.12 µg/mL (≈ 9.33 µM)
melting point: 160.6 °C

CCCCc1ccc(-c2nc(C)c(-c3ccnc(NC(=N)N(C)C)n3)s2)cc1 [Compound 11, 3-{4-[2-(4-Butylphenyl)-4-methylthiazol-5-yl]pyrimidin-2-yl}-1,1-dimethylguanidine]
microsomal CLint [10, 24]: 0.5 µL/min/mg
half-life [10, 25]: > 1 h
half-life [10, 26]: 4.05 h
solubility at 2 h [9, 22]: 53 µM (≈ 20.9 µg/mL)
MIC [8, 23]: 0.78 µg/mL (≈ 1.98 µM)
antibacterial (anti-MRSA) activity, in words ([8]; Table 1): more potent than vancomycin; also recorded: MIC value below one microgram/mL
melting point: 153.7 °C

Cc1nc(-c2ccc(-c3ccsc3)cc2)sc1-c1ccnc(N)n1 [Compound 26, 4-{4-Methyl-2-[4-(thiophen-3-yl)phenyl]thiazol-5-yl}pyrimidin-2-amine]
solubility at 2 h [9, 22]: 8.5 µM (≈ 2.98 µg/mL)
MIC [8, 23]: 6.25 µg/mL (≈ 17.8 µM)
melting point: 225 °C (dec.)

Cc1nc(-c2ccc(C3=CCCCC3)cc2)sc1-c1ccnc(N)n1 [Compound 29, 4-{2-[4-(Cyclohex-1-en-1-yl)phenyl]-4-methylthiazol-5-yl}pyrimidin-2-amine]
solubility at 2 h [9, 22]: 37 µM (≈ 12.9 µg/mL)
MIC [8, 23]: 0.78 µg/mL (≈ 2.24 µM)
melting point: 140.4 °C

CNC(=C[N+](=O)[O-])NCCSCc1ccc(CN(C)C)o1 [Ranitidine, ranitidine, reference compound]
Mean A→B Papp [11]: 0.2 ×10⁻⁶ cm/s

Cc1nc(-c2ccc(-c3ccoc3)cc2)sc1-c1ccnc(N)n1 [Compound 24, 4-{2-[4-(Furan-3-yl)phenyl]-4-methylthiazol-5-yl}pyrimidin-2-amine]
solubility at 2 h [9, 27]: 13 µM (≈ 4.35 µg/mL)
MIC ([8]; MRSA, read-out: MIC ± SD): 7.8 ± 0.5 µg/mL (≈ 23.3 µM)
melting point: 161.2 °C

Cc1nc(-c2ccc(-c3ccco3)cc2)sc1-c1ccnc(N)n1 [Compound 25, 4-{2-[4-(Furan-2-yl)phenyl]-4-methylthiazol-5-yl}pyrimidin-2-amine]
solubility at 2 h [9, 27]: 14 µM (≈ 4.68 µg/mL)
MIC ([8]; MRSA, read-out: MIC ± SD): 8.7 ± 0.3 µg/mL (≈ 26 µM)
melting point: 209.3 °C

CCCCc1ccc(-c2nc(C)c(-c3ccnc(N)n3)s2)cc1 [Compound 8, 4-[2-(4-Butylphenyl)-4-methylthiazol-5-yl]pyrimidin-2-amine]
Mean A→B Papp [11]: 14.9 ×10⁻⁶ cm/s
Mean B→A Papp ([11]; Caco-2, basolateral to apical): 17 ×10⁻⁶ cm/s
Efflux ratio ([11]; Papp (B→A)/Papp (A→B)): 1.1
microsomal CLint [10, 24]: 0.5 µL/min/mg
half-life [10, 25]: > 1 h
microsomal CLint ([10]; with NADPH, read-out: NADPH-dependent CLint): 3 to 7.5 µL/min/mg
half-life [10, 26]: 3.25 h
less soluble than the lead compound 1 ([9]; 2 h): 32%
solubility at 2 h [9, 22]: 42 µM (≈ 13.6 µg/mL)
MIC [8, 23]: 3.12 ± 0.1 µg/mL (≈ 9.62 µM)
MIC ± SD ([8]; Table 1, MRSA (2658 RCMB)): 3.12 ± 0.10 µg/mL (≈ 9.62 µM)
melting point: 159 °C

Cc1nc(-c2ccc(C(C)(C)C)cc2)sc1-c1ccnc(NC(=N)c2ccccn2)n1 [Compound 64, N-(4-(2-(4-(tert-Butyl)phenyl)-4-methylthiazol-5-yl)pyrimidin-2-yl) picolinimidamide]
MBC [12]: 2 µg/mL (≈ 4.67 µM)
MIC [12]: 2 µg/mL (≈ 4.67 µM)
MBC [1]: 4 µg/mL (≈ 9.33 µM)
MIC [1]: 4 µg/mL (≈ 9.33 µM)
MBC [2]: 4 µg/mL (≈ 9.33 µM)
MIC [2]: 2 µg/mL (≈ 4.67 µM)
MBC [13]: 2 µg/mL (≈ 4.67 µM)
MIC [13]: 2 µg/mL (≈ 4.67 µM)
MBC [14]: 4 µg/mL (≈ 9.33 µM)
MIC [14]: 4 µg/mL (≈ 9.33 µM)
MBC [3]: 4 µg/mL (≈ 9.33 µM)
MIC [3]: 4 µg/mL (≈ 9.33 µM)
MIC [4]: 4 µg/mL (≈ 9.33 µM)
time to three-log10 reduction in the initial inoculum of MRSA [5]: within six hours
bactericidal / bacteriostatic behaviour in time-kill assay, in words [5]: rapid bactericidal activity
time to completely eradicate the MRSA inoculum [5]: ≤ 24 h
MBC ([15]; read-out: MBC): 4 µg/mL (≈ 9.33 µM)
MIC ([15]; read-out: MIC): 2 µg/mL (≈ 4.67 µM)
MBC ([16]; read-out: MBC): 4 µg/mL (≈ 9.33 µM)
MIC ([16]; read-out: MIC): 4 µg/mL (≈ 9.33 µM)
MIC ([17]; ATCC19111, Table 9, Listeria monocytogenes ATCC 19111): 2 µg/mL (≈ 4.67 µM)
MBC values relative to MIC values against L. monocytogenes ([17]; text b122): more than three-fold higher
MIC [6]: 64 µg/mL (≈ 149 µM)
MBC ([6]; read-out: MBC): > 64 µg/mL
MBC [18]: 8 µg/mL (≈ 18.7 µM)
MIC [18]: 8 µg/mL (≈ 18.7 µM)
MBC [7]: > 64 µg/mL
MIC [7]: 64 µg/mL (≈ 149 µM)
MBC [19]: 4 µg/mL (≈ 9.33 µM)
MIC [19]: 4 µg/mL (≈ 9.33 µM)
MBC [20, 28]: > 64 µg/mL
MIC [20, 28]: 64 µg/mL (≈ 149 µM)
activity against S. aureus NRS107, in words ([20]; text b117): inactive
MIC [8, 21]: 0.78 µg/mL (≈ 1.82 µM)
